From PubChem BioAssay AID1963442 (Molecular Pharmacology Branch, DTP, NCI, 2024)

Tested on: MPNST complex spheroid with HUVEC/MSC, growth, % test/control
Assay: Anticancer human tumor MPNST cell line growth inhibition [Asc];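 further: compounds left on spheroids for seven days before reading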
Details: for IC50: curve of first compound; for viability, T/C: stronger effect = lower value
How it was run: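 Tumor cells were grown as complex spheroids with human endothelial cells (HUVEC) and human mesenchymal stem cells as stroma. Agents were tested alone and in combination, in half-log steps down from the clinical Cmax, or from 10 microM where Cmax was unknown.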

[1] = second compound 0.00316 µM, first compound 0.00316 µM
[2] = second compound 0.00316 µM, first compound 0.01 µM
[3] = second compound 0.00316 µM, first compound 0.0316 µM
[4] = second compound 0.00316 µM, first compound 0.1 µM
[5] = second compound 0.00316 µM, first compound 0.316 µM
[6] = second compound 0.00316 µM, first compound 1 µM
[7] = second compound 0.01 µM, first compound 0.00316 µM
[8] = second compound 0.01 µM, first compound 0.01 µM
[9] = second compound 0.01 µM, first compound 0.0316 µM
[10] = second compound 0.01 µM, first compound 0.1 µM
[11] = second compound 0.01 µM, first compound 0.316 µM
[12] = second compound 0.01 µM, first compound 1 µM
[13] = second compound 0.0316 µM, first compound 0.00316 µM
[14] = second compound 0.0316 µM, first compound 0.01 µM
[15] = second compound 0.0316 µM, first compound 0.0316 µM
[16] = second compound 0.0316 µM, first compound 0.1 µM
[17] = second compound 0.0316 µM, first compound 0.316 µM
[18] = second compound 0.0316 µM, first compound 1 µM
[19] = second compound 0.1 µM, first compound 0.00316 µM
[20] = second compound 0.1 µM, first compound 0.01 µM
[21] = second compound 0.1 µM, first compound 0.0316 µM
[22] = second compound 0.1 µM, first compound 0.1 µM
[23] = second compound 0.1 µM, first compound 0.316 µM
[24] = second compound 0.1 µM, first compound 1 µM
[25] = second compound 0.316 µM, first compound 0.00316 µM
[26] = second compound 0.316 µM, first compound 0.01 µM
[27] = second compound 0.316 µM, first compound 0.0316 µM
[28] = second compound 0.316 µM, first compound 0.1 µM
[29] = second compound 0.316 µM, first compound 0.316 µM
[30] = second compound 0.316 µM, first compound 1 µM
[31] = second compound 1 µM, first compound 0.00316 µM
[32] = second compound 1 µM, first compound 0.01 µM
[33] = second compound 1 µM, first compound 0.0316 µM
[34] = second compound 1 µM, first compound 0.1 µM
[35] = second compound 1 µM, first compound 0.316 µM
[36] = second compound 1 µM, first compound 1 µM

For `CCN1CCN(Cc2ccc(Nc3ncc(F)c(-c4cc(F)c5nc(C)n(C(C)C)c5c4)n3)nc2)CC1` + CNC(C)C(=O)NC1CN(S(=O)(=O)c2cccc(S(=O)(=O)N3CCC4CCC(C(=O)NC(c5ccccc5)c5ccccc5)N4C(=O)C(NC(=O)C(C)NC)C3)c2)CCC2CCC(C(=O)NC(c3ccccc3)c3ccccc3)N2C1=O, the IC50 (second compound 0.00316 µM) was over 1000 nM, the IC50 (second compound 0.01 µM) was over 1000 nM and the IC50 (second compound 0.0316 µM) was over 1000 nM. It also gave an IC50 (second compound 0.1 µM) of over 1000 nM, an IC50 (second compound 0.316 µM) of over 1000 nM and an IC50 (second compound 1 µM) of over 1000 nM. For the same compound, the viability, T/C [1] was 80.7%, the viability, T/C [2] was 58.2% and the viability, T/C [3] was 58.9%. For the same compound, the viability, T/C [4] was 56.2%, the viability, T/C [5] was 51.9% and the viability, T/C [6] was 57.2%. The viability, T/C [7] was 141%, the viability, T/C [8] was 83.2% and the viability, T/C [9] was 102%. For the same compound, the viability, T/C [10] was 71.8%, the viability, T/C [11] was 61.2% and the viability, T/C [12] was 73%. The viability, T/C [13] was 94.5%, the viability, T/C [14] was 92.9% and the viability, T/C [15] was 106%. It also gave a viability, T/C [16] of 66.5%, a viability, T/C [17] of 72.5% and a viability, T/C [18] of 87.1%. The viability, T/C [19] was 79.7%, the viability, T/C [20] was 74.2% and the viability, T/C [21] was 75.3%. For the same compound, the viability, T/C [22] was 61.7%, the viability, T/C [23] was 60.7% and the viability, T/C [24] was 82.7%. It also gave a viability, T/C [25] of 86.5%, a viability, T/C [26] of 69.8% and a viability, T/C [27] of 106%. It also gave a viability, T/C [28] of 104%, a viability, T/C [29] of 71.9% and a viability, T/C [30] of 76.7%. The viability, T/C [31] was 66.6%, the viability, T/C [32] was 83% and the viability, T/C [33] was 66.4%. For the same compound, the viability, T/C [34] was 61.4%, the viability, T/C [35] was 73.9% and the viability, T/C [36] was 68.7%.

With `NC(=O)C(=Cn1cnc(-c2cc(C(F)(F)F)cc(C(F)(F)F)c2)n1)c1cncnc1` + CNC(C)C(=O)NC1CN(S(=O)(=O)c2cccc(S(=O)(=O)N3CCC4CCC(C(=O)NC(c5ccccc5)c5ccccc5)N4C(=O)C(NC(=O)C(C)NC)C3)c2)CCC2CCC(C(=O)NC(c3ccccc3)c3ccccc3)N2C1=O the IC50 (second compound 0.00316 µM) was 11.6 nM, the IC50 (second compound 0.01 µM) was 54.6 nM and the IC50 (second compound 0.0316 µM) was 163 nM. For the same compound, the IC50 (second compound 0.1 µM) was 52.7 nM, the IC50 (second compound 0.316 µM) was 18.1 nM and the IC50 (second compound 1 µM) was 69.8 nM. For the same compound, the viability, T/C (second compound 0.00316 µM, first compound 0.000949 µM) was 68.7%, the viability, T/C (second compound 0.00316 µM, first compound 0.003 µM) was 65% and the viability, T/C (second compound 0.00316 µM, first compound 0.00949 µM) was 49.3%. It also gave a viability, T/C (second compound 0.00316 µM, first compound 0.03 µM) of 43.9%, a viability, T/C (second compound 0.00316 µM, first compound 0.0949 µM) of 28% and a viability, T/C (second compound 0.00316 µM, first compound 0.3 µM) of 30.8%. It also gave a viability, T/C (second compound 0.01 µM, first compound 0.000949 µM) of 78.4%, a viability, T/C (second compound 0.01 µM, first compound 0.003 µM) of 73% and a viability, T/C (second compound 0.01 µM, first compound 0.00949 µM) of 84.1%. It also gave a viability, T/C (second compound 0.01 µM, first compound 0.03 µM) of 66.3%, a viability, T/C (second compound 0.01 µM, first compound 0.0949 µM) of 34.6% and a viability, T/C (second compound 0.01 µM, first compound 0.3 µM) of 35.3%. For the same compound, the viability, T/C (second compound 0.0316 µM, first compound 0.000949 µM) was 58.5%, the viability, T/C (second compound 0.0316 µM, first compound 0.003 µM) was 72% and the viability, T/C (second compound 0.0316 µM, first compound 0.00949 µM) was 70.5%. It also gave a viability, T/C (second compound 0.0316 µM, first compound 0.03 µM) of 82.1%, a viability, T/C (second compound 0.0316 µM, first compound 0.0949 µM) of 59.2% and a viability, T/C (second compound 0.0316 µM, first compound 0.3 µM) of 34.9%. It also gave a viability, T/C (second compound 0.1 µM, first compound 0.000949 µM) of 101%, a viability, T/C (second compound 0.1 µM, first compound 0.003 µM) of 80.7% and a viability, T/C (second compound 0.1 µM, first compound 0.00949 µM) of 103%. For the same compound, the viability, T/C (second compound 0.1 µM, first compound 0.03 µM) was 62.3%, the viability, T/C (second compound 0.1 µM, first compound 0.0949 µM) was 37.5% and the viability, T/C (second compound 0.1 µM, first compound 0.3 µM) was 36.9%. It also gave a viability, T/C (second compound 0.316 µM, first compound 0.000949 µM) of 72.6%, a viability, T/C (second compound 0.316 µM, first compound 0.003 µM) of 49.9% and a viability, T/C (second compound 0.316 µM, first compound 0.00949 µM) of 60.5%. For the same compound, the viability, T/C (second compound 0.316 µM, first compound 0.03 µM) was 46%, the viability, T/C (second compound 0.316 µM, first compound 0.0949 µM) was 43.7% and the viability, T/C (second compound 0.316 µM, first compound 0.3 µM) was 34.4%. The viability, T/C (second compound 1 µM, first compound 0.000949 µM) was 63.2%, the viability, T/C (second compound 1 µM, first compound 0.003 µM) was 59% and the viability, T/C (second compound 1 µM, first compound 0.00949 µM) was 66.2%. It also gave a viability, T/C (second compound 1 µM, first compound 0.03 µM) of 55.6%, a viability, T/C (second compound 1 µM, first compound 0.0949 µM) of 47.8% and a viability, T/C (second compound 1 µM, first compound 0.3 µM) of 36%.

Work on `O=C(c1ccc(F)c(F)c1Nc1ccc(I)cc1F)N1CC(O)([C@@H]2CCCCN2)C1` + CNC(C)C(=O)NC1CN(S(=O)(=O)c2cccc(S(=O)(=O)N3CCC4CCC(C(=O)NC(c5ccccc5)c5ccccc5)N4C(=O)C(NC(=O)C(C)NC)C3)c2)CCC2CCC(C(=O)NC(c3ccccc3)c3ccccc3)N2C1=O yielded an IC50 (second compound 0.00316 µM) of 472 nM, an IC50 (second compound 0.01 µM) of 781 nM and an IC50 (second compound 0.0316 µM) of 858 nM. It also gave an IC50 (second compound 0.1 µM) of 922 nM, an IC50 (second compound 0.316 µM) of 868 nM and an IC50 (second compound 1 µM) of 892 nM. The viability, T/C [1] was 71%, the viability, T/C [2] was 46.5% and the viability, T/C [3] was 82.4%. It also gave a viability, T/C [4] of 65.1%, a viability, T/C [5] of 66.1% and a viability, T/C [6] of 19.9%. For the same compound, the viability, T/C [7] was 107%, the viability, T/C [8] was 103% and the viability, T/C [9] was 131%. It also gave a viability, T/C [10] of 134%, a viability, T/C [11] of 108% and a viability, T/C [12] of 34.2%. The viability, T/C [13] was 108%, the viability, T/C [14] was 88.7% and the viability, T/C [15] was 110%. The viability, T/C [16] was 126%, the viability, T/C [17] was 77.6% and the viability, T/C [18] was 45.8%. The viability, T/C [19] was 86.9%, the viability, T/C [20] was 89.1% and the viability, T/C [21] was 81.6%. For the same compound, the viability, T/C [22] was 90.5%, the viability, T/C [23] was 97.2% and the viability, T/C [24] was 47%. The viability, T/C [25] was 69.7%, the viability, T/C [26] was 67.3% and the viability, T/C [27] was 65.5%. It also gave a viability, T/C [28] of 134%, a viability, T/C [29] of 87.7% and a viability, T/C [30] of 45%. It also gave a viability, T/C [31] of 70.1%, a viability, T/C [32] of 80.1% and a viability, T/C [33] of 105%. For the same compound, the viability, T/C [34] was 113%, the viability, T/C [35] was 96% and the viability, T/C [36] was 45.2%.
